{"source": "paper PMC9228955", "about": "“Synthesis, Physicochemical, Labeling and In Vivo Characterization of ^44Sc-Labeled DO3AM-NI as a Hypoxia-Sensitive PET Probe” (Pharmaceuticals, 2022)", "key": {"[1]": {"experiment": "Stability of labeled complexes in mouse plasma, Na2H2EDTA and oxalic acid by radio-HPLC", "type": "in vitro ADME", "protocol": "(§1) Subsequently, the octanol/water partition coefficient (logP) of the labeled complexes was determined to be −3.89 for [^68Ga]Ga(DO3AM-NI) and −2.59 for [^44Sc]Sc(DO3AM-NI). […] To assess the labeled compounds’ stability, the chelates were mixed with the solution of mouse plasma, Na2H2EDTA and oxalic acid, respectively. Aliquots were then taken at different time points (0, 60, 120 and 240 min) and injected into the radio-HPLC column, and the chromatograms were analyzed. After 240 min, the RCP of the samples was above 93% in all three cases.\nA 10 µL volume of [^68Ga]Ga(DO3AM-NI) and [^44Sc]Sc(DO3AM-NI) solution was added to the solution of 90 µL of mouse plasma, Na2H2EDTA (0.01 M) and oxalic acid (0.01 M), respectively. Samples were analyzed by radio-HPLC at the beginning and after 60, 120 and 240 min. The analytical conditions were the same as detailed for the quality control of the labeled compound."}, "[2]": {"experiment": "Octanol/water partition coefficient (logP) of labeled complexes", "type": "physicochemical", "conditions": "1-octanol/water, triplicates", "protocol": "as §1\nA 10 µL volume of [^68Ga]Ga(DO3AM-NI) and [^44Sc]Sc(DO3AM-NI) solution (~5 MBq) was mixed with 500 µL of 1-octanol and 490 µL of water in an Eppendorf vial, respectively. The mixture was shaken with a vortex shaker (600 rpm) for 10 min and centrifuged (6000 rpm) for 5 min. Then, 100 µL from the octanol phase and 1 μL from the aqueous phase were pipetted into vials, and the aqueous aliquot was diluted to 100 µL with water in order to minimize the effects of sample geometry and the high difference of activity concentrations in the two solvents. The radioactivity of the fractions was determined with a gamma counter. The measurements were performed in triplicates for both labeled compounds."}, "[3]": {"tested_on": "KB tumors", "experiment": "In vivo PET/MRI imaging of KB tumor-bearing mice, quantitative SUV analysis", "design": "species or system CB17 SCID mice", "conditions": "240 min after injection", "protocol": "The tumor-specific accumulation of [^44Sc]Sc(DO3AM-NI) and [^68Ga]Ga(DO3AM-NI) was investigated by PET/MRI imaging 90 and 240 min after radiotracer injection using KB tumor-bearing mice. The subcutaneously growing KB tumors were clearly visualized using [^44Sc]Sc(DO3AM-NI) 90 and 240 min post injection with relatively higher SUVmean and SUVmax values (SUVmean: 1.46 ± 0.32 and SUVmax: 2.35 ± 0.47 at 90 min and SUVmean: 0.67 ± 0.03 and SUVmax: 1.55 ± 0.28 at 240 min). Lower accumulation was found in the same KB tumors by using the ^68Ga-labeled molecule (SUVmean: 0.79 ± 0.10, SUVmax: 1.94 ± 0.40 at 90 min and SUVmean: 0.51 ± 0.09 and SUVmax: 1.23 ± 0.10 at 240 min); however, this difference between the radiotracers was not significant (Figure 4E). […] In contrast, no significant differences were found between the T/M SUV values of the two radiotracers 90 min post injection (Figure 4F).\n(§2) For tumor induction, SCID mice were injected with 5x10^6 KB tumor cells in 0.9% NaCl (100 µL) subcutaneously into the left shoulder area. The tumor growth was assessed by caliper measurements, and tumor size was calculated using the following formula: (largest diameter × smallest diameter^2)/2. In vivo experiments were carried out approximately 13 ± 1 days after […] injection of tumor cells at the tumor volume of approximately 110 mm^3.\nFor in vivo imaging studies, healthy control and KB tumor-bearing CB17 SCID mice were injected with 8.42 ± 0.38 MBq of ^68Ga- or ^44Sc-labeled DO3AM-NI via the lateral tail vein 13 ± 1 days after the inoculation of KB tumor cells. Then, 65 and 225 min after radiotracer injection, mice were anaesthetized by 3% isoflurane (Forane) with a dedicated small animal anesthesia device and whole-body T1-weighted MRI scans were performed (3D GRE EXT multi-FOV; TR/TE 15/2 ms; phase: 100; FOV 60 mm; NEX 2) using the preclinical nanoScan PET/MRI system with 1 Tesla magnetic field (Mediso Ltd., Hungary). After MRI imaging, 20 min static whole-body PET scans were acquired (90 min and 4 h after radiotracer injection).\nQuantitative radiotracer uptake was expressed in terms of standardized uptake value (SUV), SUV = [VOI activity (Bq/mL)]/[injected activity (Bq)/animal weight (g)], assuming a density of 1 g/mL. Volumes of interest (VOI) were manually drawn around the edge of the organ or tumor activity using the InterView™ FUSION (Mediso Ltd., Hungary) image analysis software. Tumor-to-muscle (T/M) ratios were computed as the ratio between the activity in the tumor VOI and in the background (muscle) VOI. Skeletal muscles of the right shoulder area were used as background."}, "[4]": {"tested_on": "KB tumors", "experiment": "Ex vivo biodistribution in KB tumor xenografts", "design": "species or system CB17 SCID mice", "conditions": "for KB tumor uptake: 13 ± 1 days after subcutaneous tumor induction, n = 5, mean ± SD", "protocol": "For the assessment of the accumulation in the tumors of [^44Sc]Sc(DO3AM-NI) and [^68Ga]Ga(DO3AM-NI), ex vivo biodistribution studies were performed 90 and 240 min post injection using KB tumor xenografts.\nas §2\n(§3) For the determination of ex vivo biodistribution of the radiotracers, control and KB tumor-bearing mice were injected intravenously with 8.42 ± 0.38 MBq of ^68Ga- or ^44Sc-labeled DO3AM-NI via the tail vein. Mice were euthanized with 5% isoflurane 90 min or 4 h after intravenous radiotracer injection. Three tissue samples were taken from the selected organs, and their weight and radioactivity were measured with a calibrated gamma counter (Perkin-Elmer Packard Cobra, Waltham, MA, USA). The radiotracer uptake was expressed as %ID/g tissue."}, "[5]": {"experiment": "Ex vivo biodistribution in healthy control SCID mice", "design": "species or system CB17 SCID mice", "conditions": "mean ± SD", "protocol": "Ex vivo biodistribution studies were carried out 90 min and 240 min after intravenous injection of ^44Sc- or ^68Ga-labeled DO3AM-NI, and the accumulated activities of the organs and tissues were determined using a gamma counter. By the quantitative analysis of the ex vivo data, significant differences were found between the %ID/g values when ^44Sc- and ^68Ga-labeled DO3AM-NI accumulations were compared. […] In contrast, e.g., [^18F]fluorine- [28], [^131I]iodine- [29], [^99mTc]technetium- [30] and [^64Cu]copper-labeled nitroimidazole-based probes, due to their chemical properties, were mainly metabolized via the liver, and the large abdominal accumulation impaired the evaluation of abdominal tumors in the PET images. The ^44Sc- and ^68Ga-labeled nitroimidazole derivatives had more favorable properties in terms of the reporting and evaluation of PET images and due to their rapid elimination through the urinary system.\nas §3"}}}
{"smiles": "O=C([O-])CN1CCN(CC(=O)[O-])CCN(CC(=O)NCCn2ccnc2[N+](=O)[O-])CCN(CC(=O)[O-])CC1.[44Sc+3]", "note": "[[^44Sc]Sc(DO3AM-NI)]", "values": [{"measurement": "RCP after 240 min", "setting": "[1]; Na2H2EDTA (0.01 M)", "value": "above 93%"}, {"measurement": "RCP after 240 min", "setting": "[1]; mouse plasma", "value": "above 93%"}, {"measurement": "RCP after 240 min", "setting": "[1]; oxalic acid (0.01 M)", "value": "above 93%"}, {"measurement": "octanol/water partition coefficient (logP)", "setting": "[2]", "value": "−2.59"}, {"measurement": "tumor-to-muscle ratio T/M SUVmax", "setting": "[3]", "value": "129.68 ± 26.11"}, {"measurement": "tumor-to-muscle ratio T/M SUVmean", "setting": "[3]", "value": "182.67 ± 23.50"}, {"measurement": "T/M (tumor-to-muscle ratio)", "setting": "[4]; 90 min after injection", "value": "79.30 ± 5.26"}, {"measurement": "KB tumor uptake", "setting": "[4]; 90 min after injection", "value": "0.82 ± 0.11", "unit": "%ID/g"}, {"measurement": "T/M (tumor-to-muscle ratio)", "setting": "[4]; 240 min after injection", "value": "99.35 ± 5.14"}, {"measurement": "KB tumor uptake", "setting": "[4]; 240 min after injection", "value": "0.70 ± 0.14", "unit": "%ID/g"}, {"measurement": "T/M ratio relative to the T/M ratio of [^68Ga]Ga(DO3AM-NI)", "setting": "[4]; at each time point (90 and 240 min)", "value": "10–15 fold"}, {"measurement": "Blood uptake", "setting": "[5]; 90 min after i.v. injection", "value": "0.08 ± 0.01", "unit": "%ID/g"}, {"measurement": "Fat uptake", "setting": "[5]; 90 min after i.v. injection", "value": "0.01 ± 0.001", "unit": "%ID/g"}, {"measurement": "Heart uptake", "setting": "[5]; 90 min after i.v. injection", "value": "0.04 ± 0.01", "unit": "%ID/g"}, {"measurement": "Kidney uptake", "setting": "[5]; 90 min after i.v. injection", "value": "1.17 ± 0.41", "unit": "%ID/g"}, {"measurement": "Large intestine uptake", "setting": "[5]; 90 min after i.v. injection", "value": "0.05 ± 0.01", "unit": "%ID/g"}, {"measurement": "Liver uptake", "setting": "[5]; 90 min after i.v. injection", "value": "0.14 ± 0.09", "unit": "%ID/g"}, {"measurement": "Lung uptake", "setting": "[5]; 90 min after i.v. injection", "value": "0.10 ± 0.04", "unit": "%ID/g"}, {"measurement": "Muscle uptake", "setting": "[5]; 90 min after i.v. injection", "value": "0.01 ± 0.01", "unit": "%ID/g"}, {"measurement": "Small intestine uptake", "setting": "[5]; 90 min after i.v. injection", "value": "0.10 ± 0.05", "unit": "%ID/g"}, {"measurement": "Spleen uptake", "setting": "[5]; 90 min after i.v. injection", "value": "0.07 ± 0.02", "unit": "%ID/g"}, {"measurement": "Stomach uptake", "setting": "[5]; 90 min after i.v. injection", "value": "0.09 ± 0.03", "unit": "%ID/g"}, {"measurement": "Urine uptake", "setting": "[5]; 90 min after i.v. injection", "value": "57.78 ± 12.41", "unit": "%ID/g"}, {"measurement": "Blood uptake", "setting": "[5]; 240 min after i.v. injection", "value": "0.03 ± 0.01", "unit": "%ID/g"}, {"measurement": "Fat uptake", "setting": "[5]; 240 min after i.v. injection", "value": "0.01 ± 0.01", "unit": "%ID/g"}, {"measurement": "Heart uptake", "setting": "[5]; 240 min after i.v. injection", "value": "0.03 ± 0.01", "unit": "%ID/g"}, {"measurement": "Kidney uptake", "setting": "[5]; 240 min after i.v. injection", "value": "0.89 ± 0.23", "unit": "%ID/g"}, {"measurement": "Large intestine uptake", "setting": "[5]; 240 min after i.v. injection", "value": "0.04 ± 0.004", "unit": "%ID/g"}, {"measurement": "Liver uptake", "setting": "[5]; 240 min after i.v. injection", "value": "0.20 ± 0.04", "unit": "%ID/g"}, {"measurement": "Lung uptake", "setting": "[5]; 240 min after i.v. injection", "value": "0.04 ± 0.003", "unit": "%ID/g"}, {"measurement": "Muscle uptake", "setting": "[5]; 240 min after i.v. injection", "value": "0.007 ± 0.002", "unit": "%ID/g"}, {"measurement": "Small intestine uptake", "setting": "[5]; 240 min after i.v. injection", "value": "0.03 ± 0.01", "unit": "%ID/g"}, {"measurement": "Spleen uptake", "setting": "[5]; 240 min after i.v. injection", "value": "0.06 ± 0.01", "unit": "%ID/g"}, {"measurement": "Stomach uptake", "setting": "[5]; 240 min after i.v. injection", "value": "0.03 ± 0.005", "unit": "%ID/g"}, {"measurement": "Urine uptake", "setting": "[5]; 240 min after i.v. injection", "value": "6.23 ± 1.25", "unit": "%ID/g"}]}
